# “Also recorded” adds a separate entry of the source.
# Legend:
# Type in all cases: cell-based, human
# neutrophils [1] = assay: Neutrophil migration toward fMLP gradient (microfluidic device)
# Description: To determine whether neutrophils stored under these conditions were still capable of migrating toward an fMLP gradient, we utilized a microfluidic device previously developed for this purpose. Briefly, fMLP, a neutrophil chemoattractant, is added to two outer chambers. The outer chambers are connected to an inner chamber through a series of channels, creating a gradient. The inner chamber was then filled with neutrophils. Freshly isolated neutrophils were immediately evaluated to establish a time 0 migratory response, then the preserved neutrophils were examined after 72 and 96 h ambient storage for comparison.
# neutrophils [2] = assay: Apoptosis/necrosis inhibitors as preservatives of isolated neutrophils
# Description: Evaluation of apoptosis and necrosis inhibitors as neutrophil preservatives. Neutrophils were isolated by negative selection from healthy donor whole blood using the recommended protocol and reagents from the Human Neutrophil Enrichment Kit (StemCell Technologies; Vancouver, British Columbia, Canada). Yield was determined by counting particles from 8-30 μm in diameter using a Coulter Counter Z1 (Beckman Coulter; Brea, Calif.). Neutrophils were stored in IMDM+20% FBS and were either untreated (control) or treated with 1.25 μL/mL DMSO (Sigma-Aldrich; St. Louis, Mo.), 5 μM Q-VD-OPh (Apex Bio; Houston, Tex.), 50 μM Necrostatin-1 (Cayman Chemical; Ann Arbor, Mich.), or 50 μM Boc-D-FMK Apex Bio; Houston, Tex.). Matched samples were processed immediately after isolation and after 24, 48, 72, and 96 hours of storage at 21° C. Samples were stained with R-phycoerythrin-conjugated Annexin V, SYTOX Green, Hoechst 33342 (all Life Technologies; Carlsbad, Calif.), and allophycocyanin-conjugated CD45 (Huntington Valley) and imaged using an ImageStream^X Mk. II Imaging Flow Cytometer (Amnis Corporation; Seattle, Wash.).
# platelets = assay: Platelet activation surface markers by imaging flow cytometry; settings: dosages 0.01-0.5 ug/mL, 20 min at 4 or 22° C.
# Description: Platelet inhibitors used include: Tirofiban (Sigma), Eptifibatide (Tocris), Clopidogrel (Sigma), KF38789 (Tocris). In all experimental conditions that involved treatment with platelet inhibitors (e.g., tirofiban, eptifibatide, etc.), these compounds were added to blood samples and mixed by gentle rocking for 10 minutes before the sample was processed for other assays or storage. The addition of EDTA, unless otherwise stated, occurred 15 minutes prior to the assay (i.e., EDTA was not present during sample storage).
# Platelet activation and cell viability were determined using the Image Stream Mark II imaging flow cytometer (Amnis Corporation) equipped with a 40× objective and the 405, 488, 642 nm lasers. For the platelet activation panel, 1 μl of whole blood was combined with PBS and fluorescently labeled antibodies as follows; Pacific Blue conjugated CD41 (1:150; clone HIP8; BioLegend), FITC conjugated PAC-1 (1:10; clone PAC-1 (RUO (GMP)); BD Pharmingen), PE conjugated CD62P (1:100; clone AK-4; BD Pharmingen), APC conjugated CD63 (1:10; clone H5C6; Biolegend), PE/Cy7 conjugated CD45 (1:100; clone HI30; Abcam). […]
# neutrophil elastase = assay: Quantification of neutrophil elastase (NETosis); settings: fresh whole blood stimulated, positive control for NETs, n=7
# Description: Blood samples were mixed gently, warmed to 37° C. for four hours for the release of NETs contents into the plasma, and diluted with PBS to a final blood volume fraction of 25% before centrifugation at 2000×g for 5 minutes. The supernatant was then carefully transferred to a new centrifuge tube and stored at −80° C. for further processing. The level of neutrophil elastase was quantified using the Neutrophil Elastase Activity Assay Kit (Cayman Chemical Company) according to manufacturer's protocol, using a SpectraMax M5 spectrometer (Molecular Devices). As a positive control for NETosis, phorbol myristate acetate (100 nM) was added to fresh whole blood prior to incubation.
smiles,measurement,setting,value
"CC(C)[C@H](NC(=O)c1ccc2ccccc2n1)C(=O)N[C@@H](CC(=O)O)C(=O)COc1c(F)cccc1F [Q-VD-OPh, (3S)-5-(2,6-difluorophenoxy)-3-[[(2S)-3-methyl-2-(quinoline-2-carbonylamino)butanoyl]amino]-4-oxopentanoic acid]",migratory response to fMLP,"neutrophils [1]; after 72 h ambient storage, vs freshly isolated neutrophils",comparable to that of the freshly isolated neutrophils; also recorded: nearly indistinguishable from the migratory response of the freshly isolated neutrophils
same,migratory speed toward fMLP gradient,"neutrophils [1]; after ambient storage, vs fresh neutrophils",identical to the fresh neutrophils; also recorded: maintained comparable speed to freshly isolated neutrophils
same,CD45 biomarker expression of neutrophils,"neutrophils [2]; 5 μM, 96 h ambient storage",effectively preserved CD45 biomarker expression
same,apoptosis inhibition in neutrophils,"neutrophils [2]; 5 μM, IMDM+20% FBS, ambient storage up to 96 h",highly effective at apoptosis inhibition
same,stability of treated neutrophils under ambient storage,neutrophils [2]; ambient storage conditions,72 to 96 h
CCCCS(=O)(=O)N[C@@H](Cc1ccc(OCCCCC2CCNCC2)cc1)C(=O)O [Tirofiban],"platelet activation (PAC-1, CD62/p-selectin) of cold treated platelets",platelets,minimally activated
CCCCCCCCCCCCCC(=O)O[C@@H]1[C@@H](C)[C@@]2(O)[C@@H](C=C(CO)C[C@]3(O)C(=O)C(C)=C[C@@H]23)[C@@H]2C(C)(C)[C@]12OC(C)=O [phorbol myristate acetate],neutrophil elastase level,neutrophil elastase,81.4±64.4 mU/mL

# Source: patent US11612163B2, “Stabilization of whole blood samples” (The General Hospital Corporation, priority 2014, dated 2023)
